pIC50: −log10 of the molar value.
What was measured:
[1] = molecular target: MET (human) (Homo sapiens, UniProt P08581); assay: MET (human) AlphaScreen kinase assay, Km of ATP; assay type: biochemical; conditions: AlphaScreen, Km of ATP; read-out: Met biochemical IC50
Method in brief: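 Human MET at lot-optimised concentration in 50 mM Tris pH 7.4 buffer with 1 mM DTT, compound at 1% DMSO final; enzyme starts the reaction, 60 min at RT.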

[2] = molecular target: RON (human) (Homo sapiens, UniProt Q04912); assay: RON (human) AlphaScreen kinase assay, Km of ATP; assay type: biochemical; conditions: AlphaScreen, Km of ATP; read-out: RON biochemical IC50
RON (human), sequence (Q04912 25-1400): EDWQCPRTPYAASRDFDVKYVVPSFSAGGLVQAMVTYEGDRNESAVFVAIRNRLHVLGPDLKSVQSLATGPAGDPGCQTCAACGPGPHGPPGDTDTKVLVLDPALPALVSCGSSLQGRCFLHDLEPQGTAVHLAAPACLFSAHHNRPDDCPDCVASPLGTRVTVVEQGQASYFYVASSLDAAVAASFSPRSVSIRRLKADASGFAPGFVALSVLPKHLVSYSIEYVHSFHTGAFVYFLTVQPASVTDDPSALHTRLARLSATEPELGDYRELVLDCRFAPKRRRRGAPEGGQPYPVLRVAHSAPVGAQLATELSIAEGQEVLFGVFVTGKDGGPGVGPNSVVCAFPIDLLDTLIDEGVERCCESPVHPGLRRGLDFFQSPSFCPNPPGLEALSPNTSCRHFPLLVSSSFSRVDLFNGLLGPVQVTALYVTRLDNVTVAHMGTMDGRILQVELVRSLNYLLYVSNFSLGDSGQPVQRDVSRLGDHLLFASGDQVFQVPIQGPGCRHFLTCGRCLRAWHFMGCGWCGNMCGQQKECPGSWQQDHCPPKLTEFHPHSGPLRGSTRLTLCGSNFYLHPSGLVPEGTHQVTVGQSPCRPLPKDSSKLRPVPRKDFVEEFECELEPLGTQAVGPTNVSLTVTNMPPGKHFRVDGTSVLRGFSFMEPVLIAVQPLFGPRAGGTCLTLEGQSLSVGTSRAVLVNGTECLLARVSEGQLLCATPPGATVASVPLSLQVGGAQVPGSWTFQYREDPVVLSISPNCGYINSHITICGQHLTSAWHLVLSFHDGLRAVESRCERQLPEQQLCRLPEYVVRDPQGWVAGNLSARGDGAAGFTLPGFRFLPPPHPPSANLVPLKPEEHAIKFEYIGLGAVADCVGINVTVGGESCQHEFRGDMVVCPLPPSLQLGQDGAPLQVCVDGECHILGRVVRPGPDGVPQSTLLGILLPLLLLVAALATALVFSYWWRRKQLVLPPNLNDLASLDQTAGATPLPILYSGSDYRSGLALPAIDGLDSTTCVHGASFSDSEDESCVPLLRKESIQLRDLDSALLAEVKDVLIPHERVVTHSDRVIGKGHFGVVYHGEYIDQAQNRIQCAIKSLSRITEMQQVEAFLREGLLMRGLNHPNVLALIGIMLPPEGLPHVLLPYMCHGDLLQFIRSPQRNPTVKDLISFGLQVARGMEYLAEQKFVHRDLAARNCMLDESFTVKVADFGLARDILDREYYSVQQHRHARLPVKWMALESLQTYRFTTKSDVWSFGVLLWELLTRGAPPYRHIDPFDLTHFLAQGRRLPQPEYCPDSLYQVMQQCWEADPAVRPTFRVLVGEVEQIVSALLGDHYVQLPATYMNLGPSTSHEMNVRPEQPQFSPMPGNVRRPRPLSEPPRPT
Method in brief: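 Detection used PT66 AlphaScreen beads added in Tris pH 7.5/NaCl/EDTA/BSA buffer, read after 1 h incubation. Vehicle-only DMSO wells served as controls.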

MET (human), sequence (P08581 25-1390): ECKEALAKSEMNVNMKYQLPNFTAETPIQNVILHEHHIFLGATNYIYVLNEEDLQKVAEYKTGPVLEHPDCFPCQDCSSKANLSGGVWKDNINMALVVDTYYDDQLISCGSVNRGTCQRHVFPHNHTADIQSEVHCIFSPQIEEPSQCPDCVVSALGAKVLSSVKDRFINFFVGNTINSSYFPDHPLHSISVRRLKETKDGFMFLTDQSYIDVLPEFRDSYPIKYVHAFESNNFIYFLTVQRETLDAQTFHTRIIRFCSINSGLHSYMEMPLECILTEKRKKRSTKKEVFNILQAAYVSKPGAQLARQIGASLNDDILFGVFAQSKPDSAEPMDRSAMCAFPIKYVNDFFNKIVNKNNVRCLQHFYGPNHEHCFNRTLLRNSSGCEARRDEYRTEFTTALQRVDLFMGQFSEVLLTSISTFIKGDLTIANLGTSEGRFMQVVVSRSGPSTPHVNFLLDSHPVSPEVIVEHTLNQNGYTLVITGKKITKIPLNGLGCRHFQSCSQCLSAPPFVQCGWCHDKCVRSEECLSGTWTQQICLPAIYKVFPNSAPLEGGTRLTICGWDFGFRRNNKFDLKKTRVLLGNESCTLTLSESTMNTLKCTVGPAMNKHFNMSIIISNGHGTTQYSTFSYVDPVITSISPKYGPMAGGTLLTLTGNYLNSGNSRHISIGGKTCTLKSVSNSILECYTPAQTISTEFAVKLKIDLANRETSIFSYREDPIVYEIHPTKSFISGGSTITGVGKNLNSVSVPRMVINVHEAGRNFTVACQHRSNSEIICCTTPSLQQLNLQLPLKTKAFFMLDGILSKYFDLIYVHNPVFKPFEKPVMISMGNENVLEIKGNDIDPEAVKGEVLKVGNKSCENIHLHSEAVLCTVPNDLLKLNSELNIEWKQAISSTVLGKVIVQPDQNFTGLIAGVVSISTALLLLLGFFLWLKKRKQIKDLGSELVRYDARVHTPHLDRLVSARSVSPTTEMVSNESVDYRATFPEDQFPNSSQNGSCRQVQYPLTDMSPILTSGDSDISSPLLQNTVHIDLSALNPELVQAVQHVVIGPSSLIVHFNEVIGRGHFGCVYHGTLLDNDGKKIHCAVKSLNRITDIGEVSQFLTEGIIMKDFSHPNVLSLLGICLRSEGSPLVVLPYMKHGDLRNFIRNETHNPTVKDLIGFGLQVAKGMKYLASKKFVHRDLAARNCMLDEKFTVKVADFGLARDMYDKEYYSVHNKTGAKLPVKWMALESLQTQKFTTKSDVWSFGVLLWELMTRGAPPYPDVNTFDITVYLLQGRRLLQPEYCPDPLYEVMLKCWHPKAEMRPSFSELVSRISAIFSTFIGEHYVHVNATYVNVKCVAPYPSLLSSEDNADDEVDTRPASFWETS

pIC50 [1]	pIC50 [2]	Structure (SMILES)
5.30 to 6.30	5.30 to 6.30	C[C@@H](Oc1c(N)ncc2c(-c3cnc(N4CCN(C)CC4)nc3)coc12)c1c(Cl)ccc(F)c1Cl [Example 123, 7-[(R)-1-(2,6-Dichloro-3-fluorophenyl)ethoxy]-3-[2-(4-methylpiperazin-1-yl)pyrimidin-5-yl]furo[3,2-c]pyridin-6-ylamine]
> 6.30	> 6.30	CC(Oc1c(N)ncc2c(-c3cnn(C4CCNCC4)c3)coc12)c1cc(F)cc(Br)c1 (centres unmarked) [Example 434, 7-[1-(3-Bromo-5-fluorophenyl)ethoxy]-3-(1-piperidin-4-yl-1H-pyrazol-4-yl)furo[3,2-c]pyridin-6-ylamine]
> 6.30	> 6.30	C[C@@H](Oc1c(N)ncc2c(C3=CCN(C(N)=O)CC3)coc12)c1c(Cl)ccc(F)c1Cl [Example 34, 4-{6-Amino-7-[(R)-1-(2,6-dichloro-3-fluorophenyl)ethoxy]-furo[3,2-c]pyridin-3-yl}-3,6-dihydro-2H-pyridine-1-carboxamide]
> 6.30	> 6.30	C[C@@H](Oc1c(N)ncc2c(C3=CCN(C(=O)C4CCN(C)CC4)CC3)coc12)c1c(Cl)ccc(F)c1Cl [Example 17, (4-{6-Amino-7-[(R)-1-(2,6-dichloro-3-fluorophenyl)-ethoxy]-furo[3,2-c]pyridin-3-yl}-3,6-dihydro-2H-pyridin-1-yl)-(1-methylpiperidin-4-yl)-methanone]
5.30 to 6.30	5.30 to 6.30	C[C@@H](Oc1c(N)ncc2c(C3=CCN(C(=O)c4ccn[nH]4)CC3)coc12)c1c(Cl)ccc(F)c1Cl [Example 231, (4-{6-Amino-7-[(R)-1-(2,6-dichloro-3-fluorophenyl)ethoxy]-furo[3,2-c]pyridin-3-yl}-3,6-dihydro-2H-pyridin-1-yl)-(2H-pyrazol-3-yl)-methanone]
5.30 to 6.30	5.30 to 6.30	CC(Oc1c(N)ncc2c(-c3cnn(C4CCNCC4)c3)coc12)c1ccccc1 (centres unmarked) [Example 386, 7-(1-Phenylethoxy)-3-(1-piperidin-4-yl-1H-pyrazol-4-yl)furo[3,2-c]pyridin-6-ylamine]
5.30 to 6.30	5.30 to 6.30	C[C@@H](Oc1c(N)ncc2c(C3=CCN(C(=O)c4ccccc4)CC3)coc12)c1c(Cl)ccc(F)c1Cl [Example 11, (4-{6-Amino-7-[(R)-1-(2,6-dichloro-3-fluorophenyl)-ethoxy]-furo[3,2-c]pyridin-3-yl}-3,6-dihydro-2H-pyridin-1-yl)-phenylmethanone]
> 6.30	> 6.30	C[C@@H](Oc1c(N)ncc2c(-c3ccc(C(=O)N4CCNCC4)cc3)coc12)c1c(Cl)ccc(F)c1Cl [Example 106, (4-{6-Amino-7-[(R)-1-(2,6-dichloro-3-fluorophenyl)ethoxy]furo[3,2-c]pyridin-3-yl}phenyl)piperazin-1-ylmethanone]
5.30 to 6.30	5.30 to 6.30	C[C@@H](Oc1c(N)ncc2c(-c3ccc(C(=O)Nc4nccs4)cc3)coc12)c1c(Cl)ccc(F)c1Cl [Example 109, 4-{6-Amino-7-[(R)-1-(2,6-dichloro-3-fluorophenyl)ethoxy]-furo[3,2-c]pyridin-3-yl}-N-thiazol-2-yl-benzamide]
5.30 to 6.30	5.30 to 6.30	C[C@@H](Oc1c(N)ncc2c(C3=CCN(S(=O)(=O)c4ccccc4)CC3)coc12)c1c(Cl)ccc(F)c1Cl [Example 49, 3-(1-Benzenesulfonyl-1,2,3,6-tetrahydropyridin-4-yl)-7-[(R)-1-(2,6-dichloro-3-fluorophenyl)-ethoxy]-furo[3,2-c]pyridin-6-ylamine]
5.30 to 6.30	5.30 to 6.30	CC(Oc1c(N)ncc2c(-c3cnn(C4CCNCC4)c3)coc12)c1cccc(C(N)=O)c1 (centres unmarked) [Example 411, 3-{1-[6-Amino-3-(1-piperidin-4-yl-1H-pyrazol-4-yl)furo[3,2-c]pyridin-7-yloxy]ethyl}benzamide]
> 6.30	5.30 to 6.30	Cc1c(F)cccc1C(C)Oc1c(N)ncc2c(-c3cnn(C4CCNCC4)c3)coc12 (centres unmarked) [Example 380, 7-[1-(3-Fluoro-2-methylphenyl)ethoxy]-3-(1-piperidin-4-yl-1H-pyrazol-4-yl)furo[3,2-c]pyridin-6-ylamine]
5.30 to 6.30	4.70 to 5.30	C[C@@H](Oc1c(N)ncc2c(-c3ccc(C#N)nc3)coc12)c1c(Cl)ccc(F)c1Cl [Example 125, 5-{6-Amino-7-[(R)-1-(2,6-dichloro-3-fluorophenyl)-ethoxy]furo[3,2-c]pyridin-3-yl}pyridine-2-carbonitrile]
> 6.30	> 6.30	C[C@@H](Oc1c(N)ncc2c(-c3ccc(CN4CCN(C)CC4)s3)coc12)c1c(Cl)ccc(F)c1Cl [Example 218, 7-[(R)-1-(2,6-Dichloro-3-fluorophenyl)ethoxy]-3-[5-(4-methylpiperazin-1-ylmethyl)-thiophen-2-yl]furo[3,2-c]pyridin-6-ylamine]
> 6.30	5.30 to 6.30	C[C@@H](Oc1c(N)ncc2c(C3=CCN(S(C)(=O)=O)CC3)coc12)c1c(Cl)ccc(F)c1Cl [Example 46, 7-[(R)-1-(2,6-Dichloro-3-fluorophenyl)-ethoxy]-3-(1-methanesulfonyl-1,2,3,6-tetrahydropyridin-4-yl)-furo[3,2-c]pyridin-6-ylamine]
> 6.30	5.30 to 6.30	CC(Oc1c(N)ncc2c(-c3cnn(C4CCNCC4)c3)coc12)c1cccc(C#N)c1 (centres unmarked) [Example 393, 3-{1-[6-Amino-3-(1-piperidin-4-yl-1H-pyrazol-4-yl)furo[3,2-c]pyridin-7-yloxy]ethyl}benzonitrile]
> 6.30	5.30 to 6.30	C[C@@H]1CN(C(=O)CN2CC=C(c3coc4c(O[C@H](C)c5c(Cl)ccc(F)c5Cl)c(N)ncc34)CC2)C[C@H](C)O1 (relative stereo) [Example 204, 2-(4-{6-Amino-7-[(R)-1-(2,6-dichloro-3-fluorophenyl)ethoxy]-furo[3,2-c]pyridin-3-yl}-3,6-dihydro-2H-pyridin-1-yl)-1-((2R*,6S*)-2,6-dimethylmorpholin-4-yl)ethanone]
> 6.30	5.30 to 6.30	CC(=O)N1CCN(c2ccc(-c3coc4c(O[C@H](C)c5c(Cl)ccc(F)c5Cl)c(N)ncc34)cn2)CC1 [Example 281, 1-[4-(5-{6-Amino-7-[(R)-1-(2,6-dichloro-3-fluorophenyl)ethoxy]furo[3,2-c]pyridin-3-yl}-pyridin-2-yl)-piperazin-1-yl]ethanone]
5.30 to 6.30	5.30 to 6.30	COCCCNC(=O)c1coc2c(O[C@H](C)c3c(Cl)ccc(F)c3Cl)c(N)ncc12 [Example 191, 6-Amino-7-[(R)-1-(2,6-dichloro-3-fluorophenyl)ethoxy]furo[3,2-c]pyridine-3-carboxylic acid (3-methoxypropyl)amide]
> 6.30	5.30 to 6.30	CC(Oc1c(N)ncc2c(-c3cnn(C4CCNCC4)c3)coc12)c1cccc(Cl)c1 (centres unmarked) [Example 385, 7-[1-(3-Chlorophenyl)ethoxy]-3-(1-piperidin-4-yl-1H-pyrazol-4-yl)furo[3,2-c]pyridin-6-ylamine]
> 6.30	> 6.30	CC(Oc1c(N)ncc2c(-c3cnn(C4CCNCC4)c3)coc12)c1c(F)ccc(F)c1Cl (centres unmarked) [Example 379, 7-[1-(2-Chloro-3,6-difluorophenyl)ethoxy]-3-(1-piperidin-4-yl-1H-pyrazol-4-yl)furo[3,2-c]pyridin-6-ylamine]
> 6.30	> 6.30	CC(Oc1c(N)ncc2c(-c3cnn(C4CCNCC4)c3)coc12)c1c(Cl)c(F)cc(OCCN(C)C)c1Cl (centres unmarked) [Example 157, 7-(1-{2,6-Dichloro-3-[2-(dimethylamino)ethoxy]-5-fluorophenyl}ethoxy)-3-[1-(piperidin-4-yl)-1H-pyrazol-4-yl]furo[3,2-c]pyridin-6-amine]
> 6.30	> 6.30	C[C@@H](Oc1c(N)ncc2c(C3=CCN(C(=O)[C@H]4CCCN4)CC3)coc12)c1c(Cl)ccc(F)c1Cl [Example 242, (4-{6-Amino-7-[(R)-1-(2,6-dichloro-3-fluorophenyl)ethoxy]-furo[3,2-c]pyridin-3-yl}-3,6-dihydro-2H-pyridin-1-yl)-(R)-pyrrolidin-2-ylmethanone]
> 6.30	5.30 to 6.30	CC(Cc1cccc(F)c1)Oc1c(N)ncc2c(-c3cnn(C4CCNCC4)c3)coc12 (centres unmarked) [Example 424, 7-[2-(3-Fluorophenyl)-1-methylethoxy]-3-(1-piperidin-4-yl-1H-pyrazol-4-yl)furo[3,2-c]pyridin-6-ylamine]
> 6.30	> 6.30	Nc1ncc2c(-c3cnn(C4CCNCC4)c3)coc2c1OC/C=C/c1c(Cl)ccc(F)c1Cl [Example 356, 7-[(E)-3-(2,6-Dichloro-3-fluorophenyl)allyloxy]-3-(1-piperidin-4-yl-1H-pyrazol-4-yl)furo[3,2-c]pyridin-6-ylamine]
5.30 to 6.30	5.30 to 6.30	C[C@@H](Oc1c(N)ncc2c(-c3ccc(N4CCN(C(N)=O)CC4)cc3)coc12)c1c(Cl)ccc(F)c1Cl [Example 320, 4-(4-{6-Amino-7-[(R)-1-(2,6-dichloro-3-fluorophenyl)ethoxy]furo[3,2-c]pyridin-3-yl}phenyl)piperazine-1-carboxamide]
> 6.30	5.30 to 6.30	C[C@@H](Cc1ccccc1)Oc1c(N)ncc2c(-c3cnn(C4CCNCC4)c3)coc12 [Example 414, 7-((S)-1-Methyl-2-phenylethoxy)-3-(1-piperidin-4-yl-1H-pyrazol-4-yl)furo[3,2-c]pyridin-6-ylamine]
> 6.30	5.30 to 6.30	C[C@@H](Oc1c(N)ncc2c(-c3cccc(C(=O)NCCN4CCCC4)c3)coc12)c1c(Cl)ccc(F)c1Cl [Example 102, 3-{6-Amino-7-[(R)-1-(2,6-dichloro-3-fluorophenyl)ethoxy]-furo[3,2-c]pyridin-3-yl}-N-(2-pyrrolidin-1-ylethyl)benzamide]

Reference: patent US8022206B2 (OSI Pharmaceuticals, LLC, priority 2008, dated 2011)
